Assay results reported in the supplement of paper PMC10307832.

Assays:
Assay in all cases: relative viability (nuclei count vs DMSO), 5 days (fraction); higher = more cells survive
Tipifarnib + Foretinib = compound: Cn1cncc1[C@@](N)(c1ccc(Cl)cc1)c1ccc2c(c1)c(-c1cccc(Cl)c1)cc(=O)n2C [Tipifarnib] + COc1cc2c(Oc3ccc(NC(=O)C4(C(=O)Nc5ccc(F)cc5)CC4)cc3F)ccnc2cc1OCCCN1CCOCC1 [Foretinib] (partner 0.25 µM)
In short: (§1)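 The day after seeding in 1536-well plates, lung cancer cell lines were treated by pin tool with a single drug, or with a fixed anchor-drug dose together with five library-drug doses (not always all listed) in √10 steps. After 5 days, a combined fix-and-stain solution (final 0.05% Triton X-100, 1% formaldehyde, 1 ug/ml Hoechst) was added. Nuclei counted on 4× images gave relative viability as treated counts over vehicle counts, reported as the median of duplicate plates.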

Tipifarnib + Pictilisib = compound: Cn1cncc1[C@@](N)(c1ccc(Cl)cc1)c1ccc2c(c1)c(-c1cccc(Cl)c1)cc(=O)n2C [Tipifarnib] + CS(=O)(=O)N1CCN(Cc2cc3nc(-c4cccc5[nH]ncc45)nc(N4CCOCC4)c3s2)CC1 [Pictilisib] (partner 1 µM)
In short: as §1

Tipifarnib + AZD7762 = compound: Cn1cncc1[C@@](N)(c1ccc(Cl)cc1)c1ccc2c(c1)c(-c1cccc(Cl)c1)cc(=O)n2C [Tipifarnib] + NC(=O)Nc1cc(-c2cccc(F)c2)sc1C(=O)N[C@H]1CCCNC1 [AZD7762] (partner 0.2 µM)
In short: as §1

Tipifarnib + Vorinostat = compound: Cn1cncc1[C@@](N)(c1ccc(Cl)cc1)c1ccc2c(c1)c(-c1cccc(Cl)c1)cc(=O)n2C [Tipifarnib] + O=C(CCCCCCC(=O)Nc1ccccc1)NO [Vorinostat] (partner 1 µM)
In short: as §1

Cell Line	relative viability (Tipifarnib + Foretinib; first compound 0.01 µM)	relative viability (Tipifarnib + Foretinib; first compound 0.03162 µM)	relative viability (Tipifarnib + Foretinib; first compound 0.1 µM)	relative viability (Tipifarnib + Foretinib; first compound 0.3162 µM)	relative viability (Tipifarnib + Foretinib; first compound 1 µM)	relative viability (Tipifarnib + Pictilisib; first compound 0.01 µM)	relative viability (Tipifarnib + Pictilisib; first compound 0.03162 µM)	relative viability (Tipifarnib + Pictilisib; first compound 0.1 µM)	relative viability (Tipifarnib + Pictilisib; first compound 0.3162 µM)	relative viability (Tipifarnib + Pictilisib; first compound 1 µM)	relative viability (Tipifarnib + AZD7762; first compound 0.01 µM)	relative viability (Tipifarnib + AZD7762; first compound 0.03162 µM)	relative viability (Tipifarnib + AZD7762; first compound 0.1 µM)	relative viability (Tipifarnib + AZD7762; first compound 0.3162 µM)	relative viability (Tipifarnib + AZD7762; first compound 1 µM)	relative viability (Tipifarnib + Vorinostat; first compound 0.01 µM)	relative viability (Tipifarnib + Vorinostat; first compound 0.03162 µM)	relative viability (Tipifarnib + Vorinostat; first compound 0.1 µM)	relative viability (Tipifarnib + Vorinostat; first compound 0.3162 µM)	relative viability (Tipifarnib + Vorinostat; first compound 1 µM)
201T	1.13	1.09	1.02	0.839	0.875	0.633	0.682	0.664	0.559	0.551	0.679	0.628	0.573	0.546	0.449	1.04	0.965	0.908	0.839	0.583
NCI-H838	1.01	0.805	0.848	0.695	0.75	0.404	0.368	0.324	0.3	0.279	1.01	0.965	0.905	0.836	0.851	0.665	0.646	0.606	0.568	0.588
PC-14	0.954	1.01	0.912	0.602	0.289	0.656	0.59	0.251	0.169	0.173	0.322	0.228	0.227	0.136	0.16	0.698	0.324	0.455	0.236	0.157
LK-2	1.15	1.02	1.03	0.578	0.726	0.615	0.5	0.541	0.305	0.485	0.769	0.357	0.256	0.17	0.104	0.262	0.237	0.244	0.193	0.168
NCI-H1944	0.842	0.803	0.561	0.472	0.459	0.38	0.313	0.348	0.295	0.279	0.515	0.435	0.295	0.299	0.306	0.509	0.382	0.309	0.289	0.285
HCC-78	0.58	0.546	0.491	0.513	0.461	0.19	0.24	0.191	0.2	0.176	0.772	0.811	0.483	0.511	0.415	0.503	0.451	0.392	0.385	0.366
NCI-H2405	1.06	1.03	1.03	0.993	0.923	0.406	0.412	0.351	0.405	0.404	0.759	0.758	0.688	0.523	0.589	1.12	0.967	0.817	0.881	0.547
EMC-BAC-2	1.06	0.921	1	0.9	0.82	0.573	0.509	0.467	0.525	0.366	0.981	0.952	0.944	0.822	0.536	0.355	0.386	0.233	0.338	0.191
NCI-H596	1.05	0.857	0.619	0.569	0.53	0.392	0.365	0.354	0.373	0.312	1.1	1.09	1.08	0.822	0.776	1.11	0.462	0.467	0.456	0.434
LCLC-97TM1	1.03	0.852	0.898	0.802	0.685	0.179	0.147	0.12	0.193	0.108	0.179	0.225	0.216	0.17	0.0822	0.657	0.166	0.518	0.394	0.121
H3255	0.921	0.977	0.805	0.636	0.508	0.565	0.449	0.416	0.375	0.395	1.04	0.918	0.736	0.559	0.514	0.863	0.702	0.671	0.576	0.488
LXF-289	0.998	0.966	0.858	0.825	0.824	0.86	0.793	0.735	0.699	0.464	1.08	1.12	1.08	0.941	0.347	0.775	0.755	0.665	0.59	0.332
LC-2-ad	0.968	0.896	0.807	0.609	0.657	0.515	0.371	0.255	0.325	0.191	0.813	0.68	0.561	0.474	0.359	0.634	0.505	0.42	0.336	0.305
A-427	1.19	1.06	1.06	0.873	0.927	0.675	0.511	0.673	0.677	0.373	0.837	0.79	0.553	0.599	0.601	0.839	0.849	0.621	0.8	0.655
NCI-H322M	0.964	1.15	0.849	0.876	0.783	0.533	0.543	0.47	0.464	0.481	0.561	0.591	0.553	0.474	0.442	0.869	0.991	0.813	0.863	0.725
HCC-366	1.04	0.995	0.586	0.631	0.121	0.145	0.133	0.0968	0.0769	0.0755	0.281	0.304	0.171	0.0878	0.0371	0.249	0.145	0.102	0.067	0.0373
